Data as given in ChEMBL document CHEMBL1201862, “PubChem BioAssay data set” (2004).
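96-well plates; 48 h exposure; 5 concentrations. Endpoints by linear interpolation between flanking doses. Not reached: highest tested concentration assigned. GI50 is the concentration that inhibits growth by half.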 Active and inactive are the calls of the source. Cut-off read from the data, not from the text of the source: active = GI50 up to about 1.1 µM and inactive = higher.

How the values were obtained:
Assay in all cases: DTP human tumour cell line panel, 48 h
PC-3 = tested on: PC-3
OVCAR-4 = tested on: OVCAR-4
MDA-MB-231 = tested on: MDA-MB-231
K562 = tested on: K562
SK-OV-3 = tested on: SK-OV-3
SK-MEL-2 = tested on: SK-MEL-2
UACC-257 = tested on: UACC-257
MDA-N = tested on: MDA-N
NCI-H460 = tested on: NCI-H460
COLO 205 = tested on: COLO 205
MDA-MB-435 = tested on: MDA-MB-435
SK-MEL-28 = tested on: SK-MEL-28
ACHN = tested on: ACHN
SF-295 = tested on: SF-295
SF-539 = tested on: SF-539
OVCAR-5 = tested on: OVCAR-5
M14 = tested on: M14
HCT-15 = tested on: HCT-15
RPMI-8226 = tested on: RPMI-8226
MCF7 = tested on: MCF7
HCT-116 = tested on: HCT-116
SK-MEL-5 = tested on: SK-MEL-5
MOLT-4 = tested on: MOLT-4
DU-145 = tested on: DU-145
786-0 = tested on: 786-0
SNB-75 = tested on: SNB-75
IGROV-1 = tested on: IGROV-1
OVCAR-8 = tested on: OVCAR-8
KM12 = tested on: KM12
UACC-62 = tested on: UACC-62
HOP-92 = tested on: HOP-92
NCI/ADR-RES = tested on: NCI/ADR-RES
SN12C = tested on: SN12C
HCC 2998 = tested on: HCC 2998
EKVX = tested on: EKVX
NCI-H522 = tested on: NCI-H522
CAKI-1 = tested on: CAKI-1
HT-29 = tested on: HT-29
CCRF-CEM = tested on: CCRF-CEM
SW-620 = tested on: SW-620
HL-60 = tested on: HL-60
SR = tested on: SR
RXF 393 = tested on: RXF 393
U-251 = tested on: U-251
Hs-578T = tested on: Hs-578T
NCI-H23 = tested on: NCI-H23
A498 = tested on: A498
HOP-62 = tested on: HOP-62
NCI-H226 = tested on: NCI-H226
SF-268 = tested on: SF-268
LOX IMVI = tested on: LOX IMVI
Malme-3M = tested on: Malme-3M
A549 = tested on: A549
T47D = tested on: T47D
UO-31 = tested on: UO-31
TK-10 = tested on: TK-10
OVCAR-3 = tested on: OVCAR-3
SNB-19 = tested on: SNB-19

CCOC(=O)c1c(SCc2ccccc2)nc2c3ccccc3ccn12
GI50 (PC-3): > 100 µM (inactive) | GI50 (OVCAR-4): 56 µM (inactive) | GI50 (MDA-MB-231): > 100 µM (inactive) | GI50 (K562): > 100 µM (inactive) | GI50 (SK-OV-3): 52.7 µM (inactive) | GI50 (SK-MEL-2): > 100 µM (inactive) | GI50 (UACC-257): > 100 µM (inactive) | GI50 (MDA-N): > 100 µM (inactive) | GI50 (NCI-H460): 55.6 µM (inactive) | GI50 (COLO 205): > 100 µM (inactive) | GI50 (MDA-MB-435): > 100 µM (inactive) | GI50 (SK-MEL-28): > 100 µM (inactive) | GI50 (ACHN): 24 µM (inactive) | GI50 (SF-295): 40.7 µM (inactive) | GI50 (SF-539): 79.4 µM (inactive) | GI50 (OVCAR-5): > 100 µM (inactive) | GI50 (M14): > 100 µM (inactive) | GI50 (HCT-15): > 100 µM | GI50 (RPMI-8226): > 100 µM (inactive) | GI50 (MCF7): > 100 µM (inactive) | GI50 (HCT-116): > 100 µM (inactive) | GI50 (SK-MEL-5): > 100 µM (inactive) | GI50 (MOLT-4): > 100 µM (inactive) | GI50 (DU-145): > 100 µM (inactive) | GI50 (786-0): > 100 µM (inactive) | GI50 (SNB-75): 25.9 µM (inactive) | GI50 (IGROV-1): 38.9 µM (inactive) | GI50 (OVCAR-8): 83.6 µM (inactive) | GI50 (KM12): > 100 µM (inactive) | GI50 (UACC-62): > 100 µM (inactive) | GI50 (HOP-92): 1.72 µM (inactive) | GI50 (NCI/ADR-RES): > 100 µM (inactive) | GI50 (SN12C): > 100 µM (inactive) | GI50 (HCC 2998): > 100 µM (inactive) | GI50 (EKVX): > 100 µM (inactive) | GI50 (NCI-H522): 37.2 µM (inactive) | GI50 (CAKI-1): > 100 µM (inactive) | GI50 (HT-29): > 100 µM (inactive) | GI50 (CCRF-CEM): > 100 µM (inactive) | GI50 (SW-620): > 100 µM (inactive) | GI50 (HL-60): > 100 µM (inactive) | GI50 (SR): 47 µM (inactive) | GI50 (RXF 393): 70.6 µM (inactive) | GI50 (U-251): 57.7 µM (inactive) | GI50 (Hs-578T): 21.4 µM (inactive) | GI50 (NCI-H23): > 100 µM (inactive) | GI50 (A498): 54.5 µM (inactive) | GI50 (HOP-62): 40.1 µM (inactive) | GI50 (NCI-H226): 33.7 µM (inactive) | GI50 (SF-268): 94 µM (inactive) | GI50 (LOX IMVI): > 100 µM (inactive) | GI50 (Malme-3M): 63.7 µM (inactive) | GI50 (A549): > 100 µM (inactive) | GI50 (T47D): > 100 µM (inactive)

CN1N=C(c2ccncc2)OC1c1ccc(C(F)(F)F)cc1 (stereo not drawn)
GI50 (PC-3): > 100 µM (inactive) | GI50 (OVCAR-4): > 100 µM (inactive) | GI50 (MDA-MB-231): 63.5 µM (inactive) | GI50 (K562): > 100 µM (inactive) | GI50 (SK-OV-3): > 100 µM (inactive) | GI50 (SK-MEL-2): > 100 µM (inactive) | GI50 (UACC-257): > 100 µM (inactive) | GI50 (MDA-N): > 100 µM (inactive) | GI50 (NCI-H460): > 100 µM (inactive) | GI50 (COLO 205): > 100 µM (inactive) | GI50 (MDA-MB-435): > 100 µM (inactive) | GI50 (SK-MEL-28): > 100 µM (inactive) | GI50 (ACHN): > 100 µM (inactive) | GI50 (SF-295): > 100 µM (inactive) | GI50 (SF-539): > 100 µM (inactive) | GI50 (OVCAR-5): > 100 µM (inactive) | GI50 (M14): > 100 µM (inactive) | GI50 (HCT-15): > 100 µM | GI50 (RPMI-8226): > 100 µM (inactive) | GI50 (UO-31): > 100 µM (inactive) | GI50 (TK-10): > 100 µM (inactive) | GI50 (MCF7): > 100 µM (inactive) | GI50 (HCT-116): > 100 µM (inactive) | GI50 (SK-MEL-5): > 100 µM (inactive) | GI50 (MOLT-4): > 100 µM (inactive) | GI50 (DU-145): > 100 µM (inactive) | GI50 (786-0): 98.4 µM (inactive) | GI50 (SNB-75): 0.491 µM (active) | GI50 (IGROV-1): > 100 µM (inactive) | GI50 (OVCAR-8): > 100 µM (inactive) | GI50 (KM12): > 100 µM (inactive) | GI50 (UACC-62): > 100 µM (inactive) | GI50 (NCI/ADR-RES): > 100 µM (inactive) | GI50 (SN12C): > 100 µM (inactive) | GI50 (HCC 2998): > 100 µM (inactive) | GI50 (EKVX): 44.6 µM (inactive) | GI50 (NCI-H522): > 100 µM (inactive) | GI50 (HT-29): > 100 µM (inactive) | GI50 (CCRF-CEM): > 100 µM (inactive) | GI50 (SW-620): > 100 µM (inactive) | GI50 (HL-60): > 100 µM (inactive) | GI50 (RXF 393): > 100 µM (inactive) | GI50 (U-251): 91 µM (inactive) | GI50 (OVCAR-3): > 100 µM (inactive) | GI50 (Hs-578T): > 100 µM (inactive) | GI50 (NCI-H23): > 100 µM (inactive) | GI50 (A498): > 100 µM (inactive) | GI50 (SNB-19): > 100 µM (inactive) | GI50 (HOP-62): 82.8 µM (inactive) | GI50 (NCI-H226): 39.1 µM (inactive) | GI50 (SF-268): > 100 µM (inactive) | GI50 (LOX IMVI): > 100 µM (inactive) | GI50 (A549): > 100 µM (inactive) | GI50 (T47D): 0.495 µM (active)
